From ChEMBL document CHEMBL1201862, “PubChem BioAssay data set” (2004)
The source made the active and inactive calls.

What was measured:
[1] = molecular target: UDP-galactopyranose mutase (Mycobacterium tuberculosis, UniProt P9WIQ1); assay: Inhibitors of Mycobacterium tuberculosis UDP-galactopyranose mutase (UGM) enzyme Measured in Biochemical System Using Plate Reader - 2105-02_Inhibitor_Dose_CherryPick_Activity. [Related pubchem assays (depositor defined):AID504439]
[2] = molecular target: Cytochrome P450 2C19 (Homo sapiens, UniProt P33261); assay: Cytochrome panel assay with activity outcomes. Panel member name: p450-cyp2c19 Compounds with AC50 equal or less than 10 uM are considered active; type: functional; details: read-out: AC50
[3] = molecular target: Cytochrome P450 2D6 (Homo sapiens, UniProt P10635);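 note: CYP2D6 member of a cytochrome P450 panel assay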
[4] = molecular target: Cytochrome P450 3A4 (Homo sapiens, UniProt P08684);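 note: CYP3A4 tested as one member of a cytochrome P450 panel screen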
[5] = growth induction of Burl-1 ts yeast mutant, dose response, counter-screen for SUMOylation pathway inhibitor project, whole organism, S. cerevisiae, luminescence (AID 463199); type: functional
[6] = NIH-3T3 fibroblast cytotoxicity, dose response, cytotoxicity control, cell-based, fluorescence, Alamar Blue, secondary assay (AID 2327); type: functional;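 note: NIH-3T3 mouse fibroblasts cultured with fluconazole at 8 µg/mL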
[7] = C. albicans growth with fluconazole, confirmation, fluorescence, retest (AID 2467); type: functional, cell-based
[8] = molecular target: T1, Serine/threonine-protein phosphatase (Candida dubliniensis (strain CD36 / CBS 7987 / NCPF 3949 / NRRLY-17841) (Yeast), UniProt B9W6M3); assay: calcineurin pathway inhibitors in yeast reporter, dose response, S. cerevisiae, CDRE-lacZ, luminescence, secondary (AID 2388); type: functional, cell-based;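 note: yeast reporter cells carrying a calcineurin-responsive lacZ construct stimulated with calcium chloride; luminescent beta-galactosidase reporter signal in whole cells rather than isolated phosphatase activity; potency for inhibition where a drop in reporter signal means calcineurin blockade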
T1 sequence (B9W6M3 whole entry): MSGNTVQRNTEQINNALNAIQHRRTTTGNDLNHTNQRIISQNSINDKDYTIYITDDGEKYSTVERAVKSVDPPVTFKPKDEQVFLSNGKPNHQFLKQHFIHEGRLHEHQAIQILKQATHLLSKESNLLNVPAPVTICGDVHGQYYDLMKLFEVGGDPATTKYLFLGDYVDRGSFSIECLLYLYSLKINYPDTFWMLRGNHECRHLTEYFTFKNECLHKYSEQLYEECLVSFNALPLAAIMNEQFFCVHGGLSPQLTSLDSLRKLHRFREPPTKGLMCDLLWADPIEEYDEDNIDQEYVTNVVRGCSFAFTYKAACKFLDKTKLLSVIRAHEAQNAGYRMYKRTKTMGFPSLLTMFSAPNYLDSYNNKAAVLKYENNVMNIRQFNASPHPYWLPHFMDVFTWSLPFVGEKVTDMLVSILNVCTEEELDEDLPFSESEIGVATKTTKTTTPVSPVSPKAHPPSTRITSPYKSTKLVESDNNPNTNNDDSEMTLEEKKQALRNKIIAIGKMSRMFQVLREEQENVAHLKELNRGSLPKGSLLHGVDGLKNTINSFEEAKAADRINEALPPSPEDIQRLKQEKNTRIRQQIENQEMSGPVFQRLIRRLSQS

[9] = molecular target: T1, Serine/threonine-protein phosphatase; assay: Fluorescence Cell-Based Secondary Assay to Identify Inhibitors of Calcineurin. [Related pubchem assays (depositor defined):AID1979, AID2007]; type: functional
[10] = molecular target: T2, CAAX prenyl protease 2 (Homo sapiens, UniProt Q9Y256); assay: human Rce1 protease inhibitors, dose response, biochemical, yeast membranes, quenched-peptide fluorescence, cherry-pick (AID 588849)
T2 sequence (Q9Y256 whole entry): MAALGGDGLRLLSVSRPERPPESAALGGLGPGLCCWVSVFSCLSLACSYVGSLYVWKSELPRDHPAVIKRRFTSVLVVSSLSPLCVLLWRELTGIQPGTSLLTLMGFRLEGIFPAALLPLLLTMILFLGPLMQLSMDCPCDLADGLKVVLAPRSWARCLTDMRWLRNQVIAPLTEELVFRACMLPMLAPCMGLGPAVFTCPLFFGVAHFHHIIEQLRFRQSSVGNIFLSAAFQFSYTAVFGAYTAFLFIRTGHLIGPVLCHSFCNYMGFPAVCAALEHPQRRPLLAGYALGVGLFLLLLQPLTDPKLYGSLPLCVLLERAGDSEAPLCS

[11] = molecular target: ATP-dependent molecular chaperone HSP82 (Candida albicans (strain WO-1) (Yeast), UniProt C4YTQ8); assay: loss of DOC-induced GRE-beta-galactosidase reporter signal, dose response, Hsp90 inhibitor project, S. cerevisiae, luminescence (AID 2400); type: functional, cell-based;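 note: beta-galactosidase luminescence from glucocorticoid response element reporter as proxy for Hsp90 function; inhibitor potency where signal loss means Hsp90 inhibition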
[12] = molecular target: T3, Protein skinhead-1 (Caenorhabditis elegans, UniProt P34707); type: functional
T3 sequence (P34707 whole entry): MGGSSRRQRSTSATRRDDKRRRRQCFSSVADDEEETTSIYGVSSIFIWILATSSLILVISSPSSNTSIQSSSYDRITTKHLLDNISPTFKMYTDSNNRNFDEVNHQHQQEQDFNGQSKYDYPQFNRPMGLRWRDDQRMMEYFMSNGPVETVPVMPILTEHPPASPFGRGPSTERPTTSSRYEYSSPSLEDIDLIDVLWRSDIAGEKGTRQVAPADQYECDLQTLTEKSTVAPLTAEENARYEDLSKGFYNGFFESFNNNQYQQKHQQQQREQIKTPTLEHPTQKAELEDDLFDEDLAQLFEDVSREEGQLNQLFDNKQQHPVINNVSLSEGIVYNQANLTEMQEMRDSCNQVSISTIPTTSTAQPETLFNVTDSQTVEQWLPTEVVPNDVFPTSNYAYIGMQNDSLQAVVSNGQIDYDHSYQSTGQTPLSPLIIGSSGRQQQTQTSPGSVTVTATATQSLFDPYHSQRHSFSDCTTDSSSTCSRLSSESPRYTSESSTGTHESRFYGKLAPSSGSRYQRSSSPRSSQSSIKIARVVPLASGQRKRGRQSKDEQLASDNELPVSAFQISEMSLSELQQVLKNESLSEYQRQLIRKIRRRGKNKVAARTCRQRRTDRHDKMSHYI

[13] = molecular target: T4, Aryl hydrocarbon receptor (Homo sapiens, UniProt P35869); assay: Luminescence-based cell-based high throughput dose response assay for activators of the Aryl Hydrocarbon Receptor (AHR). [Related pubchem assays: 2796 (Primary screen (AHR activators in singlicate)), 2845 (Confirmation screen (AHR activators in triplicate)), 434939 (Counterscreen (PXR activators in triplicate)), 2804 (Summary (AHR activators))]; type: ADME
T4 sequence (P35869 whole entry): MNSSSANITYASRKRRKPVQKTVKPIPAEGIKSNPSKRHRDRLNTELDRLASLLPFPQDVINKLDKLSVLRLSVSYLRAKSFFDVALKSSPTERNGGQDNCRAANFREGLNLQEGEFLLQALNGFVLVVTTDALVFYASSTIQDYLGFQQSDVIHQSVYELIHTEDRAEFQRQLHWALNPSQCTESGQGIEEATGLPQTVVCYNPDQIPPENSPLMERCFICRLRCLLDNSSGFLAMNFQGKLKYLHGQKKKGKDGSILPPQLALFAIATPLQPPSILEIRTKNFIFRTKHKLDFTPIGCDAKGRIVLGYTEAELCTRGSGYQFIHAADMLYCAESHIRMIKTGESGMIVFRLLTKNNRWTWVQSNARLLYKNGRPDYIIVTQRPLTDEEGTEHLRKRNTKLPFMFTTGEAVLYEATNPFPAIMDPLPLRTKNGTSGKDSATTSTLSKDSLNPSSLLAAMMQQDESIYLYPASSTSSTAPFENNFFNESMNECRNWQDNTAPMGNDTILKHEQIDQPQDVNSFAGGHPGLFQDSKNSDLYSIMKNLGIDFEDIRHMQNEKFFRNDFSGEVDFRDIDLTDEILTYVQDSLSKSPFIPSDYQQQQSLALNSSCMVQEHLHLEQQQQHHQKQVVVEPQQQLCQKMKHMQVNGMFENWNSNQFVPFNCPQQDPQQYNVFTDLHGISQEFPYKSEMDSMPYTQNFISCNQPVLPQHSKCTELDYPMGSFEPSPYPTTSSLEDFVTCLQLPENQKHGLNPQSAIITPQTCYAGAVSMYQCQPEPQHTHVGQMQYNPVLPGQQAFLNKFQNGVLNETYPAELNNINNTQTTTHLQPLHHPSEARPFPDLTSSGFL

[14] = molecular target: T5, CAAX prenyl protease 2 (Saccharomyces cerevisiae S288c, UniProt Q03530); type: biochemical
T5 sequence (Q03530 whole entry): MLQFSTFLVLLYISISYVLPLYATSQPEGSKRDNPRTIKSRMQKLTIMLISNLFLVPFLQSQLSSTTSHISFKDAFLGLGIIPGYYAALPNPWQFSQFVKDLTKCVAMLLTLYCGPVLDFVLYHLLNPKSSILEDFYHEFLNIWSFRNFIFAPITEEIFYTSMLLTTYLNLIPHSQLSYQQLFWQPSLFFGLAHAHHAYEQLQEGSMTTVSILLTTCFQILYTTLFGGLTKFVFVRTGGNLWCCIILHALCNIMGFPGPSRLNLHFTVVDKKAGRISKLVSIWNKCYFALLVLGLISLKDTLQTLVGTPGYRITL

[15] = molecular target: CAAX prenyl protease 1 (Saccharomyces cerevisiae S288c, UniProt P47154); assay: Ste24 protease inhibitors, dose response, biochemical, S. cerevisiae, plate reader, cherry-pick (AID 488815)
[16] = molecular target: DNA repair and recombination protein RAD54-like (Homo sapiens, UniProt Q92698); assay: inhibitors of human RAD54 branch migration, confirmation, biochemical, fluorescence, cherry-picked samples, dose series (AID 651657); type: functional
[17] = system: HEK293; assay: NOD1 signaling inhibitors, primary screen, cell-based, luminescence, uHTS (AID 1578); type: functional; details: Homo sapiens
[18] = system: Streptococcus sp. 'group A'; assay: growth inhibition of control SK(-) GAS strain, dose response, counter-screen for streptokinase expression inhibitor project, luminescence, kanamycin, BacTiterGlo, confirmation (AID 1900); type: functional, organism-based
[19] = system: HEK293; assay: cells; type: functional, cell-based; details: Homo sapiens
[20] = molecular target: T6, Streptokinase A (Streptococcus pyogenes serotype M1, UniProt P10520); assay: S. pyogenes streptokinase expression inhibitors, potency, dose response, plasminogen activation absorbance, OD405 (AID 1914); type: functional, Streptococcus pyogenes M1 GAS;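 note: secreted streptokinase activity via plasminogen activation per viability signal from cell pellet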
T6 sequence (P10520 whole entry): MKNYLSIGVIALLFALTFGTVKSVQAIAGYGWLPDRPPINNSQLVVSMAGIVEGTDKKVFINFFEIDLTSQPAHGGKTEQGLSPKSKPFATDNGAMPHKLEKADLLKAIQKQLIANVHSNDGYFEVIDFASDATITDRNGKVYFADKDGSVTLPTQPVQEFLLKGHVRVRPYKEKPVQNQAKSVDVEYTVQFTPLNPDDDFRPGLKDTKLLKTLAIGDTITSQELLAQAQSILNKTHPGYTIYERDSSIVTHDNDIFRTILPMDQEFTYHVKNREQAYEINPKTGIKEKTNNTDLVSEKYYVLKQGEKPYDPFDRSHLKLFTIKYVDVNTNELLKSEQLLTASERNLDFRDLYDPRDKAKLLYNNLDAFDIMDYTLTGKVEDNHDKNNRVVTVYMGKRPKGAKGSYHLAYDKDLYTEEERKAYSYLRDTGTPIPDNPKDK

[21] = system: HEK293; assay: cells; type: functional, cell-based; details: Homo sapiens; remark: listed apart in the source
[22] = molecular target: Nucleotide-binding oligomerization domain-containing protein 2 (Homo sapiens, UniProt Q9HC29); assay: NOD2 signaling inhibitors, cell-based, luminescence, uHTS, HEK293 (AID 1566); type: functional
[23] = system: HEK293; assay: NOD2 signaling inhibitors in MDP-stimulated cells, cell-based, uHTS, luminescence (AID 2001); type: functional; details: Homo sapiens
[24] = system: HEK293; assay: cells; type: functional, cell-based; details: Homo sapiens; remark: listed apart in the source
[25] = system: Streptococcus; assay: Group A Streptococcus viability loss, dose response, counter-screen for streptokinase expression inhibitor project, luminescence, BacTiterGlo (AID 1915); type: functional, organism-based;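 note: potency for reduction of bacterial viability or growth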

Sequence of Nucleotide-binding oligomerization domain-containing protein 2 (Q9HC29 whole entry, the tested form may be a part): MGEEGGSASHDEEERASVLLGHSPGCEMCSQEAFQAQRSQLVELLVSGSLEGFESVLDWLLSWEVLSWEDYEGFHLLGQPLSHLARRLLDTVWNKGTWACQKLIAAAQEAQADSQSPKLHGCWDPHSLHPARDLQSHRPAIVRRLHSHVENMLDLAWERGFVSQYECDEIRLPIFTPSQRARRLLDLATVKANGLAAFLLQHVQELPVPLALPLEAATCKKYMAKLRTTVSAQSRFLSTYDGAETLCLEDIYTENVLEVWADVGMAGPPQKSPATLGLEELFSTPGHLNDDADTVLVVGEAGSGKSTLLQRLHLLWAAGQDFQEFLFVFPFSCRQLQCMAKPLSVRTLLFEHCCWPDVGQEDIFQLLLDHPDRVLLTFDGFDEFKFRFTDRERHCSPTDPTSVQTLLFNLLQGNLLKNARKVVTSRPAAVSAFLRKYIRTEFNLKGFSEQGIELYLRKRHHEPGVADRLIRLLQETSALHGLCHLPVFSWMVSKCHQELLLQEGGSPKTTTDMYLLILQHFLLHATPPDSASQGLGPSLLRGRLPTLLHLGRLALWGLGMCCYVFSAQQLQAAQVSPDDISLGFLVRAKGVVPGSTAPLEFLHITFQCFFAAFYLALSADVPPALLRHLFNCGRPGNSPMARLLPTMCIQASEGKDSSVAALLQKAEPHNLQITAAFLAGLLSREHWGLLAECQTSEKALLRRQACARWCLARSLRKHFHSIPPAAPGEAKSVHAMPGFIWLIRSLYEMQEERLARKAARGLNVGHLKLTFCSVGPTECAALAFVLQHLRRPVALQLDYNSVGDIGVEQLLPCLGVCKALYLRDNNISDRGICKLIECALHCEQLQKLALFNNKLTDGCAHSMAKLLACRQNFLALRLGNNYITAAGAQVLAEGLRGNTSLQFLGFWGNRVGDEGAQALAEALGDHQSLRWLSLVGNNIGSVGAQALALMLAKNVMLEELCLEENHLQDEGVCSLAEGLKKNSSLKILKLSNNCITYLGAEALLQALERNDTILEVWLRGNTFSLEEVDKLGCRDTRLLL
Sequence of Cytochrome P450 3A4 (P08684 whole entry): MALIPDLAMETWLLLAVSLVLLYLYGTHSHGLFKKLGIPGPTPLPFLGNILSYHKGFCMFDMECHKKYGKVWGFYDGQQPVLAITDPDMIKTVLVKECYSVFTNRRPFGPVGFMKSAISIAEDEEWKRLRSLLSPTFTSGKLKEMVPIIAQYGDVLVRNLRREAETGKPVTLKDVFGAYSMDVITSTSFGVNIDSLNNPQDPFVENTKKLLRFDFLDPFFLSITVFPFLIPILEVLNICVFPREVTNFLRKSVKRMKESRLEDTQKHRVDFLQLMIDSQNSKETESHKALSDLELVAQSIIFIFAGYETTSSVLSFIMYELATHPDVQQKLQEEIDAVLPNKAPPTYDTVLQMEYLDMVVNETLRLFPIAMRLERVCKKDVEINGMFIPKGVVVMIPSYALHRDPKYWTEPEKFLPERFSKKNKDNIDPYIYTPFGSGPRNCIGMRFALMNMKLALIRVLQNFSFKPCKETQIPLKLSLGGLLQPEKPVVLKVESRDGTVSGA
Sequence of ATP-dependent molecular chaperone HSP82 (C4YTQ8 whole entry): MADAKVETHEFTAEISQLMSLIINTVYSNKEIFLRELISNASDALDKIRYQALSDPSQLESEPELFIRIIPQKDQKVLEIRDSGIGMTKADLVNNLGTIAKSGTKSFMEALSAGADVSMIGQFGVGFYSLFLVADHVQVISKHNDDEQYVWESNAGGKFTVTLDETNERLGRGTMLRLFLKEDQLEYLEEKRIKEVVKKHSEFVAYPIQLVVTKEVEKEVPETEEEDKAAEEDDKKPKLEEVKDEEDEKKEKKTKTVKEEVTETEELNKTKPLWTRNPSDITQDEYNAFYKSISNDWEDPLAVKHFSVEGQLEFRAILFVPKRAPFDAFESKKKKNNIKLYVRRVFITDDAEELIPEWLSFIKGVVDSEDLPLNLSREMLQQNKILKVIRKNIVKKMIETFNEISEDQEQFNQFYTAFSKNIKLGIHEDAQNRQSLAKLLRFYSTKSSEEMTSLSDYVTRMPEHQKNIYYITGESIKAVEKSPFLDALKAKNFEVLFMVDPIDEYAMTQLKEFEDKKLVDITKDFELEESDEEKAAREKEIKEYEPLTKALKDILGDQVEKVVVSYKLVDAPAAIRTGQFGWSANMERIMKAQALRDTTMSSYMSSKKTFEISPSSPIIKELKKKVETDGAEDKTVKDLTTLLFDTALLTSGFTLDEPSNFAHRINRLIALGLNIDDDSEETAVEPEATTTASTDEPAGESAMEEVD
Sequence of CAAX prenyl protease 1 (P47154 whole entry): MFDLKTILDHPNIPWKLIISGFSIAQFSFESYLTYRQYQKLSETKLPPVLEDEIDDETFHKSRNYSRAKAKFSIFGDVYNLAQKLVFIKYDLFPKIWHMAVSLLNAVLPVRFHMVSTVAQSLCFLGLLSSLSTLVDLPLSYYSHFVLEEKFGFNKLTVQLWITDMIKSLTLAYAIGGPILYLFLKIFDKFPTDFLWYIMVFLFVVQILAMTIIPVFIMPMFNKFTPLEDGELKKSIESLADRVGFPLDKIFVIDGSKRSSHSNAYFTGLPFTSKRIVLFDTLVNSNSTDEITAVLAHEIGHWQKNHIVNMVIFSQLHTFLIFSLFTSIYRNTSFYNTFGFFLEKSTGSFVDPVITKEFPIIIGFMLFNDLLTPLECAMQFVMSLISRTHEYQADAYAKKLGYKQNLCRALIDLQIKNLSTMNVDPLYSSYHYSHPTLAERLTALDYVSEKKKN
Sequence of DNA repair and recombination protein RAD54-like (Q92698 whole entry): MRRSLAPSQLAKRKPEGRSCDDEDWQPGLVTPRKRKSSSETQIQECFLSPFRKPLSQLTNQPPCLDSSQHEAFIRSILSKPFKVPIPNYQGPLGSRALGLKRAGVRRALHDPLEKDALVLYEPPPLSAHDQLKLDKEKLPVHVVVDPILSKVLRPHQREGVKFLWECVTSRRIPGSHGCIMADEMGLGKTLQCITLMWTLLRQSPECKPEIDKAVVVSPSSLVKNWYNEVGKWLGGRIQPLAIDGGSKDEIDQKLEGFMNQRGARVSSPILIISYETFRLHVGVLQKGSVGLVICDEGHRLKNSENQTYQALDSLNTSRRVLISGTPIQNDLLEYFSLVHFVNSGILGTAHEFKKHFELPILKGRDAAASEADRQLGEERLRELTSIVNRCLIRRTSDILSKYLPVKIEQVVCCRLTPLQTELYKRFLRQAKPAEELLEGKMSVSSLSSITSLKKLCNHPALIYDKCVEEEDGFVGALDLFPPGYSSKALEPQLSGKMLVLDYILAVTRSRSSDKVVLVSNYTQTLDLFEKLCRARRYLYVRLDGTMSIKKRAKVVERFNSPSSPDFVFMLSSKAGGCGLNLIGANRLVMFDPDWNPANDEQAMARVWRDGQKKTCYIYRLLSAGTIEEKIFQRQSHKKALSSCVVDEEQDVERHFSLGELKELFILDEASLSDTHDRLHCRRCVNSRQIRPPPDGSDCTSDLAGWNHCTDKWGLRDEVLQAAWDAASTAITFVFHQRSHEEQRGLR
Sequence of Cytochrome P450 2D6 (P10635 whole entry): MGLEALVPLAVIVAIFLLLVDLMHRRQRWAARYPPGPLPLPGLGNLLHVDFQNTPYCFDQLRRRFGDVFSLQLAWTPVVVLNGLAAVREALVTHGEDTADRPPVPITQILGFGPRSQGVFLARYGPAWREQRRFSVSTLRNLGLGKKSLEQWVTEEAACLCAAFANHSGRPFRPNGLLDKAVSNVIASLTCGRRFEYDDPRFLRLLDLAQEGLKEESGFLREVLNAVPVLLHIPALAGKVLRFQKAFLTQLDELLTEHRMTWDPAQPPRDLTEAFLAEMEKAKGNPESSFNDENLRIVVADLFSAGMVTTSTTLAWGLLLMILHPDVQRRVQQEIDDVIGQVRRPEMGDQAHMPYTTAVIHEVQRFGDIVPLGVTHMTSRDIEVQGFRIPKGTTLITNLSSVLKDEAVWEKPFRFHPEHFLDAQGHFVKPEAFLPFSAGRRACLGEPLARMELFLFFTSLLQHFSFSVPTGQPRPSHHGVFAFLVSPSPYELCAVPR
Sequence of UDP-galactopyranose mutase (P9WIQ1 whole entry): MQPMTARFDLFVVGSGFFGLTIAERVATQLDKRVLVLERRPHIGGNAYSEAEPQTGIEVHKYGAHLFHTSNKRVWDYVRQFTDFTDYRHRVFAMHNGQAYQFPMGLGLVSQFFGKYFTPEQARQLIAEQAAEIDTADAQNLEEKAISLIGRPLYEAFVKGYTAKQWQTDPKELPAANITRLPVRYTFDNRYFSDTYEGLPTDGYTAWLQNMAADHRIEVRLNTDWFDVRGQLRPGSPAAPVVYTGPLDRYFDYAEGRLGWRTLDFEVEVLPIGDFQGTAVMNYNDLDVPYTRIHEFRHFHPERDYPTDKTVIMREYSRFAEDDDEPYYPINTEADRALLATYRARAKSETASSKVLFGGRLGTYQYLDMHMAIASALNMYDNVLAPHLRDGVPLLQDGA
Sequence of Cytochrome P450 2C19 (P33261 whole entry): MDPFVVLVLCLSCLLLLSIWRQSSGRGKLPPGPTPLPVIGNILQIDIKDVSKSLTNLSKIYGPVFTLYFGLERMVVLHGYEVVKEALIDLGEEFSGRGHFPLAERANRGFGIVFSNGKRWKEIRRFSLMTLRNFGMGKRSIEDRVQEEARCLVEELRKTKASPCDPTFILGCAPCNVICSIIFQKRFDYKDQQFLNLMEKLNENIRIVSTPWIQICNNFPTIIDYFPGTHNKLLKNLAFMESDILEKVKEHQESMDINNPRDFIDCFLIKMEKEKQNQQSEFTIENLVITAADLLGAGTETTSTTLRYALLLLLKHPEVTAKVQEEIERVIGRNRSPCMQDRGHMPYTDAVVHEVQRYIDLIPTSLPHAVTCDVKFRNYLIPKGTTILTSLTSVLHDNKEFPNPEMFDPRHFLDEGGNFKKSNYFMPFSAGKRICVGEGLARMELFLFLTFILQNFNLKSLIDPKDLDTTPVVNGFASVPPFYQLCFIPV

In the case of `Cc1cc(C)c(S(=O)(=O)Nc2ccc(C(=O)O)cc2)cc1S(=O)(=O)Nc1ccc(C(=O)O)cc1`, the AC50 [1] is reported as 423 µM (active).
For `CCc1ccc(C(CC(=O)c2ccc(Cl)cc2)C(=O)O)cc1` (stereo unspecified), the AC50 [2] was 0.00562 µM (inconclusive), the AC50 [3] was “inconclusive” and the AC50 [4] was “inconclusive”.
With `OCCc1c[nH]c2cc(F)ccc12` the AC50 [5] was 73.3 µM (active).
For `O=C(Nc1sc2c(c1C(=O)c1ccc(Cl)cc1)CCCC2)c1cccnc1`, the EC50 [6] was > 160 µM (inactive), the EC50 [7] was 0.18 µM (active) and the EC50 [8] was > 180 µM (inactive). For the same molecule, the EC50 [9] was 27.6 µM (inconclusive), the AC50 [10] was 24.3 µM (active) and the EC50 [11] was 28.2 µM (active). For the same molecule, the IC50 [12] was > 100 µM (inactive).
With `CN1CCN(CCCNC(=O)c2cc3c(-c4ccc(Cl)cc4)nn(C)c3s2)CC1` the EC50 [13] was 0.483 µM (active), the AC50 [14] was 7.05 µM (active) and the AC50 [15] was 6.07 µM (active). The AC50 [10] was 15.8 µM (active) and the AC50 [16] was 33.6 µM (active).
For `CCCCCCc1cc2cc(C(=O)OCC)c(=O)oc2cc1O`, the EC50 [17] was 5.81 µM (active), the EC50 [18] was 10.8 µM (active) and the IC50 [19] was 7.71 µM (active). For the same molecule, the EC50 [20] was 12.8 µM (active), the IC50 [21] was 15.8 µM (active) and the EC50 [22] was 12.6 µM (active). The IC50 [23] was 6.52 µM (inactive), the IC50 [24] was > 20 µM (inactive) and the EC50 [25] was > 150 µM (not active).
